From patent US11278550B2, “Compositions and methods for the treatment of Prader-Willi syndrome” (Duke University, priority 2016, dated 2022)
Entries after “also recorded” stand apart in the source; their conditions may differ.

How the values were obtained:
m+/pΔS-U mice = experiment: RNA and protein expression in PWS mouse tissues; type: in vivo
Procedure: (§1) For testing long lasting drug effects, the 6 week-old m^S-EGFP/p^+ mice were treated daily by i.p. injection for seven consecutive days.
Western blot analysis was performed as previously described by Wang, et al., Molecular Autism 5, 30 (2014). Briefly, total protein was extracted from collected tissues (liver and brain) using modified RIPA buffer (1× PBS, 1% Triton X-100, 0.1% SDS, 2 mM EDTA, and protease inhibitors). SDS-PAGE resolved 25 μg of total proteins and they were transferred to polyvinylidene difluoride (PVDF) membranes. The PVDF membranes were blocked with BLOTTO (5% skim milk and 0.1% Tween-20 in 1× TBS buffer), and incubated with primary target antibodies, rabbit anti-Snrpn (Protein Tech, cat. no. 11070-1-AP) at 1:400, and rabbit anti-Ube3a (Bethyl Lab, cat. no. A300-352A-T) at 1:1,000 working concentration in BLOTTO at 4° C. overnight. The next day, following incubation with horseradish peroxidase-conjugated secondary antibodies, the membranes were incubated with a Pierce chemiluminescent substrate and exposed to X-ray film or imaged by AI600 (GE Healthcare Life Science).
(§2) For reverse-transcription PCR (RT-PCR) and quantitative real time RT-PCR (qRT-PCR), first total RNA was extracted from the fibroblasts and/or collected tissues (liver and brain) using Direct-zol RNA Miniprep kit (Zymo Research cat. no. R2070). 2 μg of total RNA was directly used for single strand cDNA synthesis with Superscript III reverse transcriptase (Invitrogen cat. no. 18080-093) according to the manufacturer's protocols. The conditions for RT-PCR were 95° C./5 min, 35-40 cycles of 95° C./30 sec, 56-60° C./60 sec, 72° C./60 sec. Quantification of target gene expression was performed in a LightCycler480 instrument (Roche) using SsoAdvanced Universal SYBR green Supermix (Biorad cat. no. 172-5271) according to the manufacturer's instructions. See Table 4 for primer sequences and conditions used for experiments for RT-PCR, qRT-PCR, bisulfite genomic sequencing, ChIP-qPCR, and chromatin accessibility assay.

[1] = tested on: adult Snrpn-EGFP mouse model; experiment: Long-lasting unsilencing in adult Snrpn-EGFP mice; type: in vivo; conditions: 1, 4, and 12 weeks after the last dose; brain
Procedure: as §1, §2

COc1cc2c(NC3CCN(C(C)C)CC3)nc(N3CCC(F)(F)CC3)nc2cc1OCCCN1CCCC1 [UNC0642]
level of Ube3a-AS RNA (m+/pΔS-U mice; brain): not affected
expression of Snrpn and Snord116 (m+/pΔS-U mice; brain and liver, around P14, RT-PCR and qRT-PCR): readily detectable
Ube3a protein level (m+/pΔS-U mice; whole brain and cerebellum): not changed; also recorded: not affected
maternal expression of Snrpn-EGFP [1]: long lasting effect
